Measured values taken from ChEMBL document CHEMBL5149995, “An Alkynylpyrimidine-Based Covalent Inhibitor That Targets a Unique Cysteine in NF-κB-Inducing Kinase” (J Med Chem, 2021).
In brackets after ≈: the same amount, converted by molar mass. Activity calls are given as the source filed them. The rule behind the calls is not given here.

Assays:
[1] = molecular target: Mitogen-activated protein kinase kinase kinase 14 (Homo sapiens, UniProt Q99558, S549D); assay: Inhibition of His6-tagged human NIK (330 to 680 residues) S549D mutant expressed in baculovirus-infected Sf9 cells incubated for 30 mins in presence of ATP by ADP-GloTM assay
MCF7 = assay: Antiproliferative activity against NIK-independent human MCF7 cells assessed as inhibition of cell growth incubated for 72 hrs by XTT assay; format: functional
Z-138 = assay: Antiproliferative activity against NIK-activated human Z138 cells assessed as inhibition of cell growth incubated for 72 hrs by XTT assay; format: functional
Maver1 = assay: Antiproliferative activity against NIK-activated human MAVER-1 cells assessed as inhibition of cell growth incubated for 72 hrs by XTT assay; format: functional
JIM3 (Homo sapiens) = assay: Antiproliferative activity against NIK-independent human JIM3 cells assessed as inhibition of cell growth incubated for 72 hrs by XTT assay; conditions: JIM3, 72 h
[2] = Intrinsic clearance in rat hepatocytes measured per million of cells; format: ADME, cell-based, Hepatocyte; conditions: read-out: CLH
[3] = Apparent permeability across basolateral to apical side in human Caco-2 cells; format: ADME, cell-based
[4] = molecular target: Platelet-derived growth factor receptor alpha (Homo sapiens) (UniProt P16234); assay: Inhibition of PDGFRA (unknown origin) at 1 uM relative to control
[5] = molecular target: T1, Mitogen-activated protein kinase kinase kinase 7 (Homo sapiens) (UniProt O43318); assay: Inhibition of TAK1 (unknown origin) at 1 uM relative to control
T1 sequence (whole entry): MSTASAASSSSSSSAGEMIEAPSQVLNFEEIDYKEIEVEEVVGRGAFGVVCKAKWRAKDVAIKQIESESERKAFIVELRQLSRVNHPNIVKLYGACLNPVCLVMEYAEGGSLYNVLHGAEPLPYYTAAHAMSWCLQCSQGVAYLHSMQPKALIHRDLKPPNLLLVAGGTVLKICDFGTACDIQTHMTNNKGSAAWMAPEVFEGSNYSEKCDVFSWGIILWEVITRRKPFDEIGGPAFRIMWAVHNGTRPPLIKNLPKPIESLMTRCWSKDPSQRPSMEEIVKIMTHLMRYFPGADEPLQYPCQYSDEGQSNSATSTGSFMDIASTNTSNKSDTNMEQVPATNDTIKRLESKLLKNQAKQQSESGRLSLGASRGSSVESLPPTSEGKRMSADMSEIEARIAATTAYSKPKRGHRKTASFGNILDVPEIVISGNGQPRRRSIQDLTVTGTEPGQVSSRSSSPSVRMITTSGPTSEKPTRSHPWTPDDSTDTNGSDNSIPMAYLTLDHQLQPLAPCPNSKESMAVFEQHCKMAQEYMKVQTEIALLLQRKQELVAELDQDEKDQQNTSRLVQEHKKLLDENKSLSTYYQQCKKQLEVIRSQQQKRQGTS

[6] = Solubility of the compound; format: physicochemical
[7] = molecular target: T2, Serine/threonine-protein kinase Sgk1 (Homo sapiens) (UniProt O00141); assay: Inhibition of SGK1 (unknown origin) at 1 uM relative to control
T2 sequence (whole entry): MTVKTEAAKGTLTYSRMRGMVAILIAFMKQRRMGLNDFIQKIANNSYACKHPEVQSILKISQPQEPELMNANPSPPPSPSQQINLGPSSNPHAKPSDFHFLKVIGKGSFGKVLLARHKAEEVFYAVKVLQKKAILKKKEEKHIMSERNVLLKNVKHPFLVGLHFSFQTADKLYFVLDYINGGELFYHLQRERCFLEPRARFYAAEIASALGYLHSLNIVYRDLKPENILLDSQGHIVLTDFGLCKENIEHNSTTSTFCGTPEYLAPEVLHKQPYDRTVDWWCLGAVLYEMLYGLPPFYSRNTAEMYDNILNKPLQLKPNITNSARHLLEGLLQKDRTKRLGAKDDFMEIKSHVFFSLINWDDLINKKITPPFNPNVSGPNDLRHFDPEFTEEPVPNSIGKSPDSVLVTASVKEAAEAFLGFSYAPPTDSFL

Homo sapiens = species: Homo sapiens; assay: Inhibition of VEGFR (unknown origin) at 1 uM relative to control
[8] = molecular target: Tyrosine-protein kinase BTK (Homo sapiens) (UniProt Q06187); assay: Inhibition of BTK (unknown origin) at 1 uM relative to control
[9] = molecular target: Aurora kinase B (Homo sapiens) (UniProt Q96GD4); assay: Inhibition of Aurora B (unknown origin) at 1 uM relative to control
[10] = molecular target: Mitogen-activated protein kinase kinase kinase 9 (Homo sapiens) (UniProt P80192); assay: Inhibition of MLK1 (unknown origin) at 1 uM relative to control
[11] = Intrinsic clearance in human hepatocytes measured per million of cells; format: ADME, cell-based, Hepatocyte; conditions: read-out: CLH
[12] = molecular target: Receptor tyrosine-protein kinase erbB-4 (Homo sapiens) (UniProt Q15303); assay: Inhibition of HER4 (unknown origin) at 1 uM relative to control
[13] = molecular target: Serine/threonine-protein kinase SIK2 (Homo sapiens) (UniProt Q9H0K1); assay: Inhibition of SIK2 (unknown origin) at 1 uM relative to control
[14] = molecular target: Receptor-interacting serine/threonine-protein kinase 2 (Homo sapiens) (UniProt O43353); assay: Inhibition of RIPK2 (unknown origin) at 1 uM relative to control
[15] = molecular target: Mitogen-activated protein kinase kinase kinase 14 (Homo sapiens) (UniProt Q99558); assay: Covalent binding affinity to NIK (unknown origin) assessed as protein-compound adduct formation by measuring increase in 330Da mass at 100 uM incubated for 6 hrs by mass spectrometry
[16] = Apparent permeability across apical to basolateral side in human Caco-2 cells; format: ADME, cell-based
[17] = Lipophilicity, log D of the compound at pH 7.4; format: physicochemical; conditions: buffer
[18] = molecular target: Mitogen-activated protein kinase kinase kinase 14 (Homo sapiens) (UniProt Q99558); assay: Covalent binding affinity to NIK (unknown origin) assessed as labeling at Cys444 residue using Ala438-Arg451 peptide incubated for 18 hrs measured after tryptic digestion by MS/MS fragmentation spectral analysis

Mitogen-activated protein kinase kinase kinase 14, sequence (Q99558 whole entry S549D, the tested form may be a part): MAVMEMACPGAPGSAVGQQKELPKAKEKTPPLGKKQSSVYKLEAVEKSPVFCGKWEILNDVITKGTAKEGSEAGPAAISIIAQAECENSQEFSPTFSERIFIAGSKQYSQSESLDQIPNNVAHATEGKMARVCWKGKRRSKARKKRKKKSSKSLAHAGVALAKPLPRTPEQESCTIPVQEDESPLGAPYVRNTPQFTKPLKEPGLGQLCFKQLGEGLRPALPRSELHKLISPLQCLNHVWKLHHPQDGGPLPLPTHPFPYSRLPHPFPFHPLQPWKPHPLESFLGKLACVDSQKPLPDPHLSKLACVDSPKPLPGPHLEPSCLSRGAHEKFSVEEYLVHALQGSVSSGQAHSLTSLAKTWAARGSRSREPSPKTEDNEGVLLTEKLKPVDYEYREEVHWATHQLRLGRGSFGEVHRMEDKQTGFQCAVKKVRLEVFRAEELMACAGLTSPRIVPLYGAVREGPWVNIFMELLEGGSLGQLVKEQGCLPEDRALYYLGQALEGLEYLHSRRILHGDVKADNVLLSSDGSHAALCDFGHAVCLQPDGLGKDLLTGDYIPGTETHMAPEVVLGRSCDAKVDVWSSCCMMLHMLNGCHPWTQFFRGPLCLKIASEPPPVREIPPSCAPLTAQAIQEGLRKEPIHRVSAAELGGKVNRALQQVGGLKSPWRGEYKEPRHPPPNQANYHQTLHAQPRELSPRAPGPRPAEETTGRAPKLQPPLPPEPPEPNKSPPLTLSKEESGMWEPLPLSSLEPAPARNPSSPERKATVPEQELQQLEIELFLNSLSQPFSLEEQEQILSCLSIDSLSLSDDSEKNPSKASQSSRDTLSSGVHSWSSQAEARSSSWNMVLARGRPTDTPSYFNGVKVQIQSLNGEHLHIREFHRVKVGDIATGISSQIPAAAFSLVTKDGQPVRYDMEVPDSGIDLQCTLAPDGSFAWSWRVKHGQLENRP
Mitogen-activated protein kinase kinase kinase 14 (Homo sapiens), sequence (Q99558 whole entry, looked up, the tested form may be a part): as the sequence (Q99558 whole entry S549D, the tested form may be a part) above, with D549S counted along it
Receptor-interacting serine/threonine-protein kinase 2 (Homo sapiens), sequence (O43353 whole entry): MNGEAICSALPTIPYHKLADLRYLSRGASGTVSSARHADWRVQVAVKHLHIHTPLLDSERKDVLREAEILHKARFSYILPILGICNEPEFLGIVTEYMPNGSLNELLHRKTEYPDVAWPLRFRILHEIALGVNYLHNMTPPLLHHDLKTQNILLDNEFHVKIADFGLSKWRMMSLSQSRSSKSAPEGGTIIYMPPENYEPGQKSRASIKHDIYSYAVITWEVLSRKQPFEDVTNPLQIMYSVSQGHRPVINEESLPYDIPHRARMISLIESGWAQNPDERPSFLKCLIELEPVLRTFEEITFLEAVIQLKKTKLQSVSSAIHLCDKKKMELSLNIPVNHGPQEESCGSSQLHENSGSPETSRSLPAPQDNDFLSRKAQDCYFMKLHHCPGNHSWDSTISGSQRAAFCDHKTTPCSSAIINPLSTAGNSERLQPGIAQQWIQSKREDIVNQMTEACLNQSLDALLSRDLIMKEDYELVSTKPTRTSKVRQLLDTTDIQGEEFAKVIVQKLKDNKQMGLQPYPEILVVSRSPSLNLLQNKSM
Receptor tyrosine-protein kinase erbB-4 (Homo sapiens), sequence (Q15303 whole entry): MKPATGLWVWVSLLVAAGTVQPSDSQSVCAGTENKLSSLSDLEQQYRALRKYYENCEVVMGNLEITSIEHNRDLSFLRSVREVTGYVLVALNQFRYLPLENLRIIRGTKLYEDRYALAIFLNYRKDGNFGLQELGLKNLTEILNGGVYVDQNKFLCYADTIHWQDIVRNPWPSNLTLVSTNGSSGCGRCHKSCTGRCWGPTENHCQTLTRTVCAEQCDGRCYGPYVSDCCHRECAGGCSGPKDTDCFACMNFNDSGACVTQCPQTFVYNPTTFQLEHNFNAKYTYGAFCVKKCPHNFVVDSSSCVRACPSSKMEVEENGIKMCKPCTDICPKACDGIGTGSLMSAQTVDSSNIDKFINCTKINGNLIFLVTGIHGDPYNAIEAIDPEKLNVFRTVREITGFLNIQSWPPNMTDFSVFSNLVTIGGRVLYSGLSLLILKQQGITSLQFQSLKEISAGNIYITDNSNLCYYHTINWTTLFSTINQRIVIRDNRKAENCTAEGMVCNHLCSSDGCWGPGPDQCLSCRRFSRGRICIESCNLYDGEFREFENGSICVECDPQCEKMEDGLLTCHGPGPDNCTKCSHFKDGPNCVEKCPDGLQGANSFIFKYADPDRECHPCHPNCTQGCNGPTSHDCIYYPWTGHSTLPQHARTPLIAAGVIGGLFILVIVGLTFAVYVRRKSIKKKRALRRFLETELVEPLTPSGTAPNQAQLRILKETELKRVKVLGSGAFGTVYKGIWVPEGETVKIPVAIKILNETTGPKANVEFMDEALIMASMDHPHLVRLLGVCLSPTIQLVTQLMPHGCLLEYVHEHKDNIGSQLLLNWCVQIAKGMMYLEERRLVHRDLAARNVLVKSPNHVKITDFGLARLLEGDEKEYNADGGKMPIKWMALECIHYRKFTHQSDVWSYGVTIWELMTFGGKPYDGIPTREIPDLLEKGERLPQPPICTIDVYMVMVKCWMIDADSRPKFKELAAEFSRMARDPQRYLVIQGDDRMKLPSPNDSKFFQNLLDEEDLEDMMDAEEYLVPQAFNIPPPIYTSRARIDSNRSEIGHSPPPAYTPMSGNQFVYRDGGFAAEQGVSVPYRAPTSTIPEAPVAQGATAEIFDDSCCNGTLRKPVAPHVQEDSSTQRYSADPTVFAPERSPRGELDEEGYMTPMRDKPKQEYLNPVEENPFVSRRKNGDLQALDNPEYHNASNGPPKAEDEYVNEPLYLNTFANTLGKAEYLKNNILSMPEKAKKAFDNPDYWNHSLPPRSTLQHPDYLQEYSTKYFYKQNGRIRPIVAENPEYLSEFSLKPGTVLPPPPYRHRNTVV
Tyrosine-protein kinase BTK (Homo sapiens), sequence (Q06187 whole entry): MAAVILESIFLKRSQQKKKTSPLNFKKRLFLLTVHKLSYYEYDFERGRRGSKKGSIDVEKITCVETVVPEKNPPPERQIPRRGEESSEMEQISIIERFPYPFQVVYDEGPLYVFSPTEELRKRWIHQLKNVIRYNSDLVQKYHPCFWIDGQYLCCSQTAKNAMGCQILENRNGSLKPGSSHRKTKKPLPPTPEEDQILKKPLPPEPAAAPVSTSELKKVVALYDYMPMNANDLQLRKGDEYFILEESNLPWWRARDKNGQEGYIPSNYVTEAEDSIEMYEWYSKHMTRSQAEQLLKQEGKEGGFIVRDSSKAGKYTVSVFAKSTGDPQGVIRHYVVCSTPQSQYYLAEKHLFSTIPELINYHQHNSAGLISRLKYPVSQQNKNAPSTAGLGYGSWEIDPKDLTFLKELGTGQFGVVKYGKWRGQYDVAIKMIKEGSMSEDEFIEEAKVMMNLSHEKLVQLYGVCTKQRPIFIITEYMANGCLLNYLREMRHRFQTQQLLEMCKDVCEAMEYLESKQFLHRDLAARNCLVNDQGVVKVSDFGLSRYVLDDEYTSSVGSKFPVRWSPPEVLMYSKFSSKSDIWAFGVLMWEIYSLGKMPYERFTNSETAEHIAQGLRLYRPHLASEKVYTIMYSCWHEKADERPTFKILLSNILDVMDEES
Aurora kinase B (Homo sapiens), sequence (Q96GD4 whole entry): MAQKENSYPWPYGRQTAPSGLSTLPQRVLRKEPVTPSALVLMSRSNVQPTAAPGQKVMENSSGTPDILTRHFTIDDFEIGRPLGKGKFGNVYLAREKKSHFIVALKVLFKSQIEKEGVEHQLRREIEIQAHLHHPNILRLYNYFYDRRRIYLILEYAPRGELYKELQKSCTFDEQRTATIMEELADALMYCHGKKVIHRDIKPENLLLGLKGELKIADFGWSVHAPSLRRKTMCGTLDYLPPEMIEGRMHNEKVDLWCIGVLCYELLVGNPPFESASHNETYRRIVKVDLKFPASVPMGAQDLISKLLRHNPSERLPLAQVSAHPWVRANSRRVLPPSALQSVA
Serine/threonine-protein kinase SIK2 (Homo sapiens), sequence (Q9H0K1 whole entry, looked up): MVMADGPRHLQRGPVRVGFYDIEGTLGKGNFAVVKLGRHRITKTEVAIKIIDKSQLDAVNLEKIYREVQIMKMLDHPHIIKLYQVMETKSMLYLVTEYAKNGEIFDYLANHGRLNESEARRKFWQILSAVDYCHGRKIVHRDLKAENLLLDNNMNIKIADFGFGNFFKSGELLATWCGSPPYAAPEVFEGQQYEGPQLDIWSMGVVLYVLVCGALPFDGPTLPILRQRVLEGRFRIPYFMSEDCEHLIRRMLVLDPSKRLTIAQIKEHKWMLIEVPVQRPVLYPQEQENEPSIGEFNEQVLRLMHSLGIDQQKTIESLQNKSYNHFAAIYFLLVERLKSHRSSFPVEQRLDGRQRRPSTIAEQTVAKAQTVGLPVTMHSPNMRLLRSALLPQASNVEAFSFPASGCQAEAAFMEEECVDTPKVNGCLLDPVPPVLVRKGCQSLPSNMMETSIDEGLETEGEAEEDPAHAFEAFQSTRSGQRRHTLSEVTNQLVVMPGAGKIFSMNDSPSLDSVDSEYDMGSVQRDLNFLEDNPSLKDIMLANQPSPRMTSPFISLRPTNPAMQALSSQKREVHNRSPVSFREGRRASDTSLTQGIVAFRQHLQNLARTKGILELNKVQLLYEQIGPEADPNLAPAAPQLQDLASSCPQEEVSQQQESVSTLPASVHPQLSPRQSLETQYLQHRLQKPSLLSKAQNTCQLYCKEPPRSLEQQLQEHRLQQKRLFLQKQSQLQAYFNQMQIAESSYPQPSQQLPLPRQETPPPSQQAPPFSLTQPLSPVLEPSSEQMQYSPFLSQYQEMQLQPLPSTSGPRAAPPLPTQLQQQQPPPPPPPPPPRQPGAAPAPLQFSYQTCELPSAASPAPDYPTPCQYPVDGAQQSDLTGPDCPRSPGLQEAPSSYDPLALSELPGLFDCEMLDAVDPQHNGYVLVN

For `COCCOc1cnc(N)nc1-c1c[nH]c2ccc(C#CC(C)(C)O)cc12`, the IC50 [1] was 0.0398 µM.
`C=CC(=O)NCCCCc1ccc2ncn(-c3ccnc(N)n3)c2c1` gave an IC50 [1] of 501 µM.
For `C#Cc1cccc(C#Cc2ccc3ncn(-c4ccnc(N)n4)c3c2)n1`, the IC50 [1] was 3.16 µM.
Work on `C=Cc1ccc(C#Cc2ccc3ncn(-c4ccnc(N)n4)c3c2)cn1` yielded an IC50 [1] of 79.4 µM.
`Cc1ccnc(C#Cc2ccc3ncn(-c4ccnc(N)n4)c3c2)n1` gave an IC50 [1] of 1.58 µM.
`CC(=O)NCCCc1ccc2ncn(-c3ccnc(N)n3)c2c1` showed an IC50 [1] greater than 100 µM.
`C#Cc1cncc(C#Cc2ccc3ncn(-c4ccnc(N)n4)c3c2)n1` showed an IC50 [1] of 6.31 µM.
For `C=Cc1ccnc(C#Cc2ccc3ncn(-c4ccnc(N)n4)c3c2)c1`, the GI50 (MCF7) was 1.26 µM, the IC50 [1] was 1.58 µM and the GI50 (Z-138) was 0.398 µM. The GI50 (Maver1) was 0.501 µM and the GI50 (JIM3 (Homo sapiens)) was 1.58 µM.
In the case of `C#Cc1cc(C#Cc2ccc3ncn(-c4ccnc(N)n4)c3c2)ncn1`, the IC50 [1] is reported as 50.1 µM.
`C#Cc1ncc(C#Cc2ccc3ncn(-c4ccnc(N)n4)c3c2)cn1` showed an IC50 [1] of 79.4 µM.
For `C=CC(=O)NCCCc1ccc2ncn(-c3ccnc(N)n3)c2c1`, the IC50 [1] was 501 µM.
`COc1cc(C(N)=O)nc(-c2cccc(C#C[C@]3(O)CCN(C)C3=O)c2)c1` gave a GI50 (MCF7) greater than 31.6 µM, a GI50 (Z-138) of 20 µM and a GI50 (Maver1) of 3.98 µM. It also gave a GI50 (JIM3 (Homo sapiens)) greater than 31.6 µM.
`C#Cc1cc(C#Cc2ccc3ncn(-c4ccnc(N)n4)c3c2)ccn1` gave an IC50 [1] of 31.6 µM.
`CC(=O)NCCCCc1ccc2ncn(-c3ccnc(N)n3)c2c1` gave an IC50 [1] of 398 µM.
For `C=Cc1ccnc(C#Cc2ccc3ncn(-c4ccnc(N)n4)c3c2)n1`, the GI50 (MCF7) was 0.631 µM, the IC50 [1] was 1.58 µM and the GI50 (Z-138) was 1 µM. It also gave a GI50 (Maver1) of 1.26 µM and a GI50 (JIM3 (Homo sapiens)) of 1.58 µM.
For `C=Cc1nccc(C#Cc2ccc3ncn(-c4ccnc(N)n4)c3c2)n1`, the IC50 [1] was 39.8 µM.
Compound `CC(O)(C#Cc1ccc2c(c1)N(c1nc(N)ncc1Cl)CC2)c1nccs1` (stereo not drawn) has an IC50 [1] of 0.00398 µM.
Work on `C=Cc1cc(C#Cc2ccc3ncn(-c4ccnc(N)n4)c3c2)ccn1` yielded an IC50 [1] of 20 µM.
Work on `C=CC(=O)NCC#Cc1ccc2ncn(-c3ccnc(N)n3)c2c1` yielded an IC50 [1] of 6.31 µM.
`C#Cc1ccnc(C#Cc2ccc3ncn(-c4ccnc(N)n4)c3c2)n1` showed a GI50 (MCF7) of 0.501 µM, a hepatocyte CLint [2] of 915 µL/min/1e6 cells and a Papp B→A [3] of 0.22 ×10⁻⁶ cm/s. The inhibition [4] was greater than 50%, the inhibition [5] was greater than 50% and the solubility [6] was 3.8 µM (≈ 1.28 µg/mL). The inhibition [7] was greater than 50%, the inhibition (Homo sapiens) was greater than 50% and the IC50 [1] was 0.2 µM. The inhibition [8] was greater than 50%, the inhibition [9] was greater than 50% and the inhibition [10] was greater than 50%. It also gave a GI50 (Z-138) of 0.631 µM, a GI50 (Maver1) of 0.398 µM and a hepatocyte CLint [11] of 382 µL/min/1e6 cells. The GI50 (JIM3 (Homo sapiens)) was 0.501 µM, the inhibition [12] was greater than 50% and the inhibition [13] was greater than 50%. The inhibition [14] was greater than 50%, the Activity [15] was “Active” and the Papp A→B [16] was 0.33 ×10⁻⁶ cm/s. For the same compound, the logD [17] was 2.8 and the Activity [18] was “Active”.
With `C#Cc1nccc(C#Cc2ccc3ncn(-c4ccnc(N)n4)c3c2)n1` the IC50 [1] was 39.8 µM.
For `C#Cc1ccc2ncn(-c3ccnc(N)n3)c2c1`, the IC50 [1] was 0.251 µM.
Compound `CCc1ccc2ncn(-c3ccnc(N)n3)c2c1` has an IC50 [1] of 79.4 µM.
`C#Cc1ccnc(C#Cc2ccc3ncn(-c4ccnc(N)n4)c3c2)c1` showed a GI50 (MCF7) greater than 10 µM, an IC50 [1] of 0.316 µM and a GI50 (Z-138) of 7.94 µM. The GI50 (Maver1) was 10 µM and the GI50 (JIM3 (Homo sapiens)) was greater than 7.94 µM.
With `C#Cc1cncc(C#Cc2ccc3ncn(-c4ccnc(N)n4)c3c2)c1` the IC50 [1] was 63.1 µM.
`C#Cc1cnc(C#Cc2ccc3ncn(-c4ccnc(N)n4)c3c2)nc1` showed an IC50 [1] of 25.1 µM.
